We go through 39 compounds from the Deep4Chem optical property database.

The data set in a line: solvent given as SMILES.

On to `c1ccc(-c2nc(-c3ccccc3)n3ccccc23)cc1`, for which the emission maximum by setting is: (in C1CCCCC1) 445 nm; (in CC#N) 478 nm; (in CO) 477 nm; (in ClC(Cl)Cl) 454 nm; (in ClCCl) 484 nm; (in O) 479 nm.
On to `C#CCNC1=C2C=C(c3cc4n(c3)[B-](F)(F)[N+]3=CC=CC3=C4c3c(C)cc(C)cc3C)C(C)=[N+]2[B-](F)(F)n2c(C)ccc21`, for which the emission maximum is, setting by setting: (in C1CCCCC1) 633 nm; (in CCOC(C)=O) 690 nm.
Regarding `CCN(CC)c1ccc2c(c1)oc(=O)c1c(=O)oc3c(OC)cccc3c12`, the emission maximum runs as follows: (in CS(C)=O) 572 nm; (in ClCCl) 530 nm.
On to `CCCCCCCCCCCCOc1ccc(C#CC(C#Cc2ccc(OCCCCCCCCCCCC)cc2)=Cc2cc(C=C(C#Cc3ccc(OCCCCCCCCCCCC)cc3)C#Cc3ccc(OCCCCCCCCCCCC)cc3)cc(C=C(C#Cc3ccc(OCCCCCCCCCCCC)cc3)C#Cc3ccc(OCCCCCCCCCCCC)cc3)c2)cc1`, for which the emission maximum (in CCOC(C)=O) stood at 428 nm.
The compound `Cc1ccccc1N1c2sc3ccccc3c2Sc2sc3ccccc3c21` returned an emission maximum (in ClCCl) of 564 nm.
With `c1ccc2c(c1)ccc1c3ccccc3ccc21`, the emission maximum (in ClCCl) is on record as 366 nm.
For `c1ccc2c(-c3cncnc3)c3ccccc3c(-c3cncnc3)c2c1`, the emission maximum (in CCO) worked out at 417 nm and the emission maximum (in ClCCl) was 417 nm.
As for `CC1=CC(C)=[N+]2C1=C(c1ccc(N3CCOCC3)cc1)c1c(C)cc(C)n1[B-]2(F)F`, the emission maximum came to 514 nm (in C1CCOC1); 511 nm (in CC#N); 520 nm (in CC(=O)C(C)(C)C); 516 nm (in CC(C)=O); 511 nm (in CCCCCC); 517 nm (in CCOC(C)=O). The emission maximum (in CO) was 514 nm.
The compound `CC(C)c1cccc(C(C)C)c1-n1c(=O)c2ccc3c4ccc5c(=O)n(-c6c(C(C)C)cccc6C(C)C)c(=O)c6cc7c(-c8ccccn8)nc8cc(c1=O)c2c3c8c7c4c56` returned an emission maximum (in ClC(Cl)Cl) of 485 nm.
Consider `COc1c2ccccc2c(OC)c2c1c1cc(C)ccc1n2C`, for which the emission maximum is on record as 421 nm (in C1CCCCC1), 431 nm (in CC#N), 426 nm (in CO) and 428 nm (in ClCCl).
For `CCCCC1=Cc2c3ccc4cccc5ccc(c6cc(-c7ccccc7)n(c26)P1(=O)c1ccccc1)c3c45` (stereo unspecified), the emission maximum is, setting by setting: (in C1CCCCC1) 452 nm; (in C1CCOC1) 459 nm; (in C1COCCO1) 460 nm; (in CC#N) 459 nm; (in CC(C)=O) 459 nm; (in CO) 459 nm. Also, the emission maximum runs as follows: (in Cc1ccccc1) 460 nm; (in ClC(Cl)Cl) 458 nm; (in ClCCl) 459 nm.
On to `Fc1ccc(-c2cc3ccc4cc(-c5ccc(F)cc5)cc5ccc(c2)c3c45)cc1`, for which the emission maximum worked out at 413.38 nm (in C1CCCCC1); 411.8 nm (in C1CCOC1); 408.05 nm (in CC#N); 411.8 nm (in CCCCCC); 408.84 nm (in CCO); 409.82 nm (in CN(C)C=O). Moreover, the emission maximum came out at 408.05 nm (in CO), 410.54 nm (in ClC(Cl)Cl) and 409.82 nm (in ClCCl).
As for `CCn1c2ccccc2c2cc(/C=C/c3cc(/C=C/c4ccc5c(c4)c4ccccc4n5CC)[n+](CCCS(=O)(=O)[O-])c(/C=C/c4ccc5c(c4)c4ccccc4n5CC)c3)ccc21`, the emission maximum runs as follows: (in C1CCOC1) 605 nm; (in CC#N) 611 nm; (in CC(C)=O) 610 nm; (in Cc1ccccc1) 599 nm.
Turning to `c1ccc(-c2nn(-c3ccccc3)c3nc4ccccc4cc23)cc1`, the emission maximum came to 443.66 nm (in C1CCCCC1); 467.73 nm (in C1CCOC1); 478.01 nm (in CC#N); 472.59 nm (in CC(C)=O); 462.96 nm (in CCCCCl); 454.96 nm (in CCCCOCCCC). Also, the emission maximum (in CN(C)C=O) is on record as 476.64 nm.
For the compound `CC1=[N+]2C(=C(C3=CC4OCCOCCOCCOCCOC4C=C3)c3c4ccccc4c(/C=C/c4ccc(N(C)C)cc4)n3[B-]2(F)F)c2ccccc21` (stereo unspecified), the emission maximum (in CC#N) is listed as 741 nm.
In turn, `Cc1ccc(-c2ccc(-c3ccc(-c4ccc(-c5ccc(C)cc5)cc4)c(/C(=C(/c4ccccc4)c4cc(-c5ccc(-c6ccc(C)cc6)cc5)ccc4-c4ccc(-c5ccc(C)cc5)cc4)c4ccccc4)c3)cc2)cc1` came in with an emission maximum (in C1CCOC1) of 498 nm.
On to `CCOC(=O)/C(C#N)=C\c1cn(-c2ccccc2)nc1-c1ccccc1`, for which the emission maximum is 429 nm (in C1CCOC1); 408 nm (in C1COCCO1); 423 nm (in CCO); 427 nm (in CCOC(C)=O); 434 nm (in CN(C)C=O); 434 nm (in CO). The emission maximum reads like this: (in CS(C)=O) 440 nm; (in Cc1ccccc1) 407 nm; (in ClC(Cl)Cl) 431 nm; (in ClCCl) 428 nm.
The compound `CCOc1cc(C=C2c3ccccc3-c3ccccc32)c(OCC)cc1C=C1c2ccccc2C=Cc2ccccc21` registered an emission maximum (in C1CCOC1) of 474 nm.
On to `c1ccc(-c2nc(-c3ccc(N4c5ccccc5Sc5ccccc54)cc3)nn2-c2ccc(N3c4ccccc4Sc4ccccc43)cc2)nc1`, for which the emission maximum (in ClCCl) is reported as 490 nm.
For the compound `CC(C)[Si](C#CC1=CC2=c3cc(C#C[Si](C(C)C)(C(C)C)C(C)C)c4nc(C(F)(F)C(F)(F)C(F)(F)F)nc5c(C#C[Si](C(C)C)(C(C)C)C(C)C)cc(c3c54)C3=CC(C#C[Si](C(C)C)(C(C)C)C(C)C)=C4N=C(C(F)(F)C(F)(F)C(F)(F)F)N=C1C4C32)(C(C)C)C(C)C` (stereo unspecified), the emission maximum (in C1CCOC1) is recorded as 525 nm.
As to `O=C(N/N=C/c1ccccc1O)c1cccc2ccccc12`, the emission maximum is 436 nm (in C1CCOC1); 376 nm (in CC#N); 428 nm (in CC(C)=O); 429 nm (in CCO); 560 nm (in CN(C)C=O); 336 nm (in CS(C)=O). Also, for the setting “in ClCCl”, the emission maximum was 393 nm.
Turning to `C[Si]1(C)c2ccc(-c3ccc(-c4cccs4)s3)cc2C=Cc2cc(-c3ccc(-c4cccs4)s3)ccc21`, for the setting “in ClCCl”, the emission maximum is 424 nm.
In the case of `COc1ccc(-c2cc3c(ccc(=O)n3C)s2)cc1`, the emission maximum amounted to 424 nm (in CC#N) and 426 nm (in ClCCl).
The compound `C#Cn1c(-c2cc(-c3nc4ccc(C)cc4n3C#C)cc(-c3nc4ccc(C)cc4n3C#C)c2)nc2ccc(C)cc21` showed an emission maximum (in C1CCOC1) of 389.5 nm.
`Oc1cccc(C2=[N+]3C(=C(c4ccccc4)c4cccn4[B-]3(F)F)C=C2)c1` came in with an emission maximum (in ClC(Cl)Cl) of 553 nm.
Under “in CCCCCCC”, `c1ccc2cc3c(cc2c1)-c1cccc2cc4ccccc4c-3c12` yielded an emission maximum of 471 nm.
`C(#Cc1ccccc1)C1=Cc2ccc3ccccc3c2NB1c1ccccc1`: the emission maximum (in C1CCCCC1) worked out at 416 nm.
In turn, `c1ccc(-c2c3c(c(-c4ccccc4)c4cc5ccccc5cc24)Cc2c(c(-c4ccccc4)c4cc5ccccc5cc4c2-c2ccccc2)C3)cc1` had an emission maximum (in CC#N) of 400 nm; an emission maximum (in CCCCCC) of 396 nm; an emission maximum (in CO) of 398 nm; an emission maximum (in Cc1ccccc1) of 402 nm; an emission maximum (in ClCCl) of 402 nm.
For `c1ccc2c(c1)-c1ccccc1C21c2ccccc2N(c2ccc(-c3nc([C@]45CC6CC(C[C@@H](C6)C4)C5)nc([C@]45C[C@H]6C[C@@H](C[C@H](C6)C4)C5)n3)cc2)c2ccccc21`, the emission maximum runs as follows: (in CC(C)(C)c1ccc(-n2c3ccc([Si](c4ccccc4)(c4ccccc4)c4ccccc4)cc3c3cc([Si](c4ccccc4)(c4ccccc4)c4ccccc4)ccc32)cc1) 448.69 nm; (in Cc1ccccc1) 454.71 nm.
Compound `CNc1ccc2c(c1)C(=O)c1ccccc1-2` showed an emission maximum (in C1CCCCC1) of 587 nm and an emission maximum (in c1ccccc1) of 635 nm.
With `CCOc1cccc2c1O[B-](F)(F)[n+]1c3c(c4c(c1-2)-c1ccccc1CC4)-c1ccccc1CC3`, the emission maximum (in ClCCl) was 483 nm.
For `CCCCCCCCn1c2cc(/C=C/c3ccc(N(c4ccccc4)c4ccccc4)cc3)ccc2c2cc3c(cc21)c1ccc(/C=C/c2ccc(N(c4ccccc4)c4ccccc4)cc2)cc1n3CCCCCCCC`, the emission maximum (in Cc1ccccc1) is listed as 473 nm.
On to `CCCCCCn1c(=O)c2c3[nH]c4ccccc4[nH]c3c3c(=O)n(CCCCCC)c(=O)c3c2c1=O`, for which the emission maximum (in ClCCl) is 641 nm.
As for `O=c1cc2c(-c3c(O)c4cccc5ccc6oc(=O)cc3c6c54)c(O)c3cccc4ccc(o1)c2c43`, the emission maximum (in CC1CCCO1) amounted to 552 nm.
For `CCCCCCCCN1C(=O)c2ccc3c4c(-c5ccc6c(c5)c5ccccc5n6-c5ccccc5)cc5c6c(ccc(c7c(-c8ccc9c(c8)c8ccccc8n9-c8ccccc8)cc(c2c37)C1=O)c64)C(=O)N(CCCCCCCC)C5=O`, the emission maximum (in ClC(Cl)Cl) is 689 nm.
Regarding `CCCc1c(C(=O)c2ccc3c4c(cccc24)-c2cccc4c2C3CC=C4)c2ccc3cccc4c5cccc6ccc1c(c65)c2c34` (stereo unspecified), where the note is “in ClCCl”, the emission maximum is 526 nm.
Turning to `COc1ccccc1-c1nc(-c2ccccc2)c2ccccn12`, the emission maximum runs as follows: (in C1CCCCC1) 477 nm; (in CC#N) 479 nm; (in CO) 475 nm; (in ClCCl) 479 nm; (in O) 481 nm.
On to `COc1ccc(C(=O)/C=C2\C(=O)Nc3ccccc32)cc1`, for which the emission maximum turned out to be 373 nm (in C1COCCO1); 372 nm (in CC#N); 381 nm (in CC(C)(C)O); 378 nm (in CC(C)O); 378 nm (in CCCCO); 375 nm (in CCOC(C)=O). Also, the emission maximum reads like this: (in CN(C)C=O) 375 nm; (in CO) 380 nm; (in ClCCl) 411 nm; (in O) 407 nm.
Consider `C=C[Si](c1c2ccccc2cc2ccccc12)(c1c2ccccc2cc2ccccc12)c1c2ccccc2cc2ccccc12`, for which the emission maximum (in ClC(Cl)Cl) is 437 nm.
